US20220017833A1, “Methods and Compositions for Scavenging Sulfides from Hydrocarbon Fluids and Aqueous Streams” (Nexgen Oilfield Chemicals, LLC, priority 2019, published 2022)

Columns and labels:
Format in all cases: physicochemical
[1] = Storage Capacity Loss Test; conditions: for BT Capacity Loss / FD Capacity Loss: 72-24 Hrs storage at room temperature; for Min to BT / Min to FD: Short Reaction Time Capacity Test, diaminol in water + 10.00 g MeOH, 20 g test
Experimental: This test compares the scavenging capacity after 24 hours of storage of the scavenger system at room temperature to that after 72 hours of storage thereof at room temperature. In one embodiment, a sample of the scavenger system is made fresh and split in two portions. The Short Reaction Time Capacity Test is run on one portion after standing 24 hours on the bench at room temperature. Then the same test is run on the other portion after standing 72 hours on the bench at room temperature. The two measured capacities are compared to see if the product degrades in storage. Importantly, some scavengers lose activity with time due to secondary reactions and re-equilibrations that degrade their active form.
Table 5 compares different alkyl substituents on glyoxy alkyl diaminols. These compounds were prepared by reacting one mole of glyoxal, as a 40% aqueous solution, with 2.1 moles of various primary amines in a sufficient amount of MeOH to keep the product from separating into an aqueous layer and a non-aqueous layer. For each amine substituent: methyl (Me), ethyl (Et), normal-propyl (n-Pr), iso-propyl (i-Pr), and iso-propanol [1-propan-2-ol] (i-PrOH), the presence or absence of alpha branching on that substituent is noted. The weight ratios of the diaminols, water, and MeOH, are listed, along with their equivalent weights (Eq. Wt.) and the total equivalents per 20 g test (Eq/test). To measure the product stability, the Storage Capacity Loss between 24 and 72 hours was determined. As described earlier, a fresh sample of the scavenger system is split in two portions. The Short Reaction Time Capacity Test is run on one portion after standing 24 hours on the bench at room temperature. Then the same test is run on the other portion after standing 72 hours on the bench at room temperature. Both the 24-hr and 72-hr capacities (Min to FD and BT) and molar capacities (Min/Eq FD and BT) are listed in the table with the percent capacity loss for each substituent calculated below it. […] The others lost 34% to 77% of their scavenging capacity in 48 hours (72-24), presumably due to secondary reactions and re-equilibrations that degraded their active form. In this system employing only methanol, all of these compositions failed both the Hot Spray Fouling Test and the Spent Water Flowability Test. Two of them, the iso-propylamine [propan-2-amine] and the iso-propanolamine [1-aminopropan-2-ol] passed the Spent Solids Fouling Test.

[2] = Solution Homogeneity Test; conditions: Table 5; glyoxy alkyl diaminol in water and MeOH only
Excerpt: In one aspect, as two-phase reaction products are problematic, scavenger system homogeneity is desired. The two phases could be emulsified or otherwise finely dispersed, but in practice, even fine, seemingly stable dispersions eventually separate or stratify in extended storage or critical use and are not robust enough for practical use. They are not allowed, for example, to be fed through capillaries for fear of plugging them. In this pass/fail test, a sample is held up for visual inspection in a backlit clear vial. A clear, single-phase, homogeneous solution is a pass. Anything else is a fail.

Hot Spray Fouling Test = conditions: Table 5; glyoxy alkyl diaminol in water and MeOH only
Excerpt: In many gas applications, the scavenger must by sprayed into a hot gas stream. This can create insoluble materials (“solids”) as the scavenger system evaporates and/or decomposes. These solids accumulate and foul (interfere with the function) of the vessel, line, or equipment to which the scavenger is being fed. This precludes the scavenger being used in that application. Referring now to FIG. 2, a spray test system 200 is utilized to for the Hot Spray Fouling Test. In one embodiment, an injection atomizer apparatus 22 is employed, wherein the scavenger formulation (not separately labeled) is sprayed onto a sheet 26 through an atomizing nozzle 24, like that used to introduce the scavenger into a gas line, tank, or vessel. The material is first placed in a double boiler (not shown) and brought to 180° F. The heated liquid is then placed in the injection atomizer apparatus 22 and sprayed horizontally onto an aluminum sheet 26 twelve inches away. The chemical drains gravitationally down the sheet where it is funneled into a beaker 28 for collection. If solids are observed on the sheet 26 or in the draining or collected fluid, the sample fails. If no solids are observed, it passes the test.

[3] = Spent Solids Fouling Test; conditions: Table 5, glyoxy alkyl diaminol in water and MeOH only
Excerpt: In every application, the active component of the scavenger system reacts with H2S to from a reaction product. Once all the active scavenger has been so reacted, it is spent. […] Thioethers are much less water soluble than amines, so the reaction products are often insoluble. Thioether bridges also connect spent scavenger molecules to each other, thereby forming insoluble polymeric solids. These solids accumulate and foul (interfere with the function) of the vessel, line, or equipment to which the scavenger is being fed. […] If any solids or insoluble viscous liquids are observed poorly dispersed in the spent scavenger system or clinging to the sides of the vessel, the scavenging system employed in that Long Reaction Time Capacity Test fails this test. A homogeneous, single-phase solution or thin layer of readily flowable non-sticking liquid constitutes a pass.

[4] = Spent Water Flowability Test; set-up: key: Pass: A homogeneous, single-phase solution or thin layer of readily flowable non-sticking liquid constitutes a pass.; Fail: Any solids or thick, sticky insoluble liquid is a fail.; PASS: A homogeneous, single-phase solution or thin layer of readily flowable non-sticking liquid constitutes a pass.; FAIL: Any solids or thick, sticky insoluble liquid is a fail; conditions: Table 5; glyoxy alkyl diaminol in water and MeOH only
Experimental: In field applications, spent scavenger is disposed of through a wastewater system. Spent scavenger might be soluble in the scavenger system but insoluble in wastewater. If it cannot be disposed of, it is not suitable for use. To ensure wastewater processing runs trouble free, spent scavenger passing the Spent Solids Fouling Test is then added to 39 times its weight in water (2.5%) and examined again for insoluble solids and viscous, sticky liquids that might foul the wastewater system. Any solids or thick, sticky insoluble liquid is a fail. A homogeneous, single-phase solution or thin layer of readily flowable non-sticking liquid constitutes a pass.

[5] = Sample Age 24 Hrs at room temperature
[6] = Sample Age 72 Hrs at room temperature

SMILES	BT Capacity Loss [1] [%]	FD Capacity Loss [1] [%]	Min/Eq BT ([1]; Sample Age 24 Hrs) [Min/Eq]	Min/Eq FD ([1]; Sample Age 24 Hrs) [Min/Eq]	Min to BT [1, 5] [min]	Min to FD [1, 5] [min]	Min/Eq BT ([1]; Sample Age 72 Hrs) [Min/Eq]	Min/Eq FD ([1]; Sample Age 72 Hrs) [Min/Eq]	Min to BT [1, 6] [min]	Min to FD [1, 6] [min]	Solution Homogeneity [2]	Hot Spray Fouling (Hot Spray Fouling Test)	Spent Solids Fouling [3]	Spent Solids Fouling ([3]; listed as iso-propanolamine)	Spent Water Flowability [4]
CC(O)CNC(O)C(O)NCC(C)O (stereo not drawn)	67	54	444	192	30	13	148	89	10	6	Pass	Fail	Pass	passed	Fail
CCNC(O)C(O)NCC (stereo not drawn) [Et]	46	71	436	365	37	31	236	106	20	9	Pass	Fail	Fail		Fail
CNC(O)C(O)NC (stereo not drawn) [Me]	34	47	301	156	29	15	197	83	19	8	Pass	Fail	Fail		Fail
CCCNC(O)C(O)NCCC (stereo not drawn) [n-Pr]	55	77	501	409	38	31	224	92	17	7	Pass	Fail	Fail		Fail
